Consider ten compounds from ChEMBL document CHEMBL5034046, “Discovery of Small-Molecule CD33 Pre-mRNA Splicing Modulators” (ACS Med Chem Lett, 2022).

SMILES strings stand for the structures. Values after ≈ are worked out from the molar mass of the structure shown.

Series [1] is described as follows: Increase in CD11c level in human THP-1 cell surface incubated for 48 to 72 hrs by high content imaging assay. The series is classed as functional.
Series [2] can be described thus: […] level in human THP-1 cell surface at top concentration incubated for 48 to 72 hrs by high content imaging assay. The class given is functional. To be noted: time 48-72 hrs.
The test system of series [3] is K562. Nature of the series: Modulation of CD33 pre-mRNA splicing in human K562 cells assessed as induction of exon 2 skipping at 25 uM measured after 18 to 24 hrs by Nano-Luciferase reporter assay. The class given is cell-based. The following applies: filed as modulator, time 18-24 hrs. On the technique in general: In a reporter assay the amount or activity of a reporter protein is the signal.

The nature of series [4]: […] level in human THP-1 cell surface incubated for 48 to 72 hrs by high content imaging assay. The class given is functional.
The target in series [5] is Proprotein convertase subtilisin/kexin type 9 (Homo sapiens, UniProt Q8NBP7). Nature of the series: Inhibition of PCSK9 translation in human THP-1 cells by AlphaLISA assay. The class given is cell-based. For orientation: Alpha assays give light when donor and acceptor beads are brought close together.
Proprotein convertase subtilisin/kexin type 9, sequence (Q8NBP7 31-152 limits assumed): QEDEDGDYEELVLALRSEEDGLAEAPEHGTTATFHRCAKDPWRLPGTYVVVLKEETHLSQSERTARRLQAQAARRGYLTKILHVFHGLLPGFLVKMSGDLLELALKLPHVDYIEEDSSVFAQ
Proprotein convertase subtilisin/kexin type 9, sequence (Q8NBP7 153-692 limits assumed): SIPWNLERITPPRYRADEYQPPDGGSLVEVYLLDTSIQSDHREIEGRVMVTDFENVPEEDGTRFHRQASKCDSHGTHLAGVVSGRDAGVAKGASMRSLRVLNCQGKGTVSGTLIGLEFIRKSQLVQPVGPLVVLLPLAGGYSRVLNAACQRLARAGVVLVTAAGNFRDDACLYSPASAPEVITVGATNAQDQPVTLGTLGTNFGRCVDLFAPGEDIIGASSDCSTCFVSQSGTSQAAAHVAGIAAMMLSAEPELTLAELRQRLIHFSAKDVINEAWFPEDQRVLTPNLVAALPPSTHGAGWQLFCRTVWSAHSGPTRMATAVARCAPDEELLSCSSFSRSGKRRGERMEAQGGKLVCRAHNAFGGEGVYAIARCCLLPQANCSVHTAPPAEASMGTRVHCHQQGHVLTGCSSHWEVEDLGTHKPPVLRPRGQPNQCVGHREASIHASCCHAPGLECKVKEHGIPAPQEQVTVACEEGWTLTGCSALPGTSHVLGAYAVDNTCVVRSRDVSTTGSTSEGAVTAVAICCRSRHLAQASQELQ
Series [6] is described as follows: Modulation of CD33 pre-mRNA splicing in human K562 cells assessed as induction of exon 2 skipping measured after 16 to 24 hrs by Nano-Luciferase counter screen assay. The series is classed as cell-based. For orientation: The purpose of a counterscreen is to sort out artefacts and off-target activity.
Series [7] in a line: Modulation of CD33 pre-mRNA splicing in human K562 cells assessed as induction of exon 2 skipping measured after 18 to 24 hrs by Nano-Luciferase reporter assay. The class given is cell-based.
For series [8], the system named is THP-1. Nature of the series: Cytotoxicity against human THP-1 cells assessed as reduction in cell viability by DAPI staining based assay. The class given is functional.
Series [9] is described as follows: Cytotoxicity against human THLE cells by ATP depletion assay. The class given is cell-based.
For series [10], the target named is T1, Muscarinic acetylcholine receptor M1 (Homo sapiens, UniProt P11229).
T1 sequence (P11229 whole entry): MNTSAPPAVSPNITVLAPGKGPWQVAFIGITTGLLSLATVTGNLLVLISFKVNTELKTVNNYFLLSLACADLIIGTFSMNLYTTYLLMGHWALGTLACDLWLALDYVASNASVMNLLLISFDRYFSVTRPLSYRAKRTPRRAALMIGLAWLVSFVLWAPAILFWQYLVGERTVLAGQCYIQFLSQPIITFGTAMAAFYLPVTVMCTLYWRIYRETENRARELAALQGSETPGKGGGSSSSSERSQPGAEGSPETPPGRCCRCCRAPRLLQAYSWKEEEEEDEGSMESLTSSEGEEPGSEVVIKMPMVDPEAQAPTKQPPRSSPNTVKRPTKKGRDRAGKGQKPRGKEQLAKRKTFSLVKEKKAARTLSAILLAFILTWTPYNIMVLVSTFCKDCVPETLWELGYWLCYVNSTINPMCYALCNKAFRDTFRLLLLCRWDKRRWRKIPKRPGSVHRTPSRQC
Nature of the series: Antagonist activity at muscarinic M1 receptor (unknown origin) expressed in cells assessed as change in fluorescence measured after 24 hrs by FLIPR assay. The series is classed as functional, cell-based.

The target of series [11] is T2, Voltage-gated inwardly rectifying potassium channel KCNH2 (Homo sapiens, UniProt Q12809). Nature of the series: Displacement of [3H]-dofetilide from human ERG.
T2 sequence (Q12809 whole entry): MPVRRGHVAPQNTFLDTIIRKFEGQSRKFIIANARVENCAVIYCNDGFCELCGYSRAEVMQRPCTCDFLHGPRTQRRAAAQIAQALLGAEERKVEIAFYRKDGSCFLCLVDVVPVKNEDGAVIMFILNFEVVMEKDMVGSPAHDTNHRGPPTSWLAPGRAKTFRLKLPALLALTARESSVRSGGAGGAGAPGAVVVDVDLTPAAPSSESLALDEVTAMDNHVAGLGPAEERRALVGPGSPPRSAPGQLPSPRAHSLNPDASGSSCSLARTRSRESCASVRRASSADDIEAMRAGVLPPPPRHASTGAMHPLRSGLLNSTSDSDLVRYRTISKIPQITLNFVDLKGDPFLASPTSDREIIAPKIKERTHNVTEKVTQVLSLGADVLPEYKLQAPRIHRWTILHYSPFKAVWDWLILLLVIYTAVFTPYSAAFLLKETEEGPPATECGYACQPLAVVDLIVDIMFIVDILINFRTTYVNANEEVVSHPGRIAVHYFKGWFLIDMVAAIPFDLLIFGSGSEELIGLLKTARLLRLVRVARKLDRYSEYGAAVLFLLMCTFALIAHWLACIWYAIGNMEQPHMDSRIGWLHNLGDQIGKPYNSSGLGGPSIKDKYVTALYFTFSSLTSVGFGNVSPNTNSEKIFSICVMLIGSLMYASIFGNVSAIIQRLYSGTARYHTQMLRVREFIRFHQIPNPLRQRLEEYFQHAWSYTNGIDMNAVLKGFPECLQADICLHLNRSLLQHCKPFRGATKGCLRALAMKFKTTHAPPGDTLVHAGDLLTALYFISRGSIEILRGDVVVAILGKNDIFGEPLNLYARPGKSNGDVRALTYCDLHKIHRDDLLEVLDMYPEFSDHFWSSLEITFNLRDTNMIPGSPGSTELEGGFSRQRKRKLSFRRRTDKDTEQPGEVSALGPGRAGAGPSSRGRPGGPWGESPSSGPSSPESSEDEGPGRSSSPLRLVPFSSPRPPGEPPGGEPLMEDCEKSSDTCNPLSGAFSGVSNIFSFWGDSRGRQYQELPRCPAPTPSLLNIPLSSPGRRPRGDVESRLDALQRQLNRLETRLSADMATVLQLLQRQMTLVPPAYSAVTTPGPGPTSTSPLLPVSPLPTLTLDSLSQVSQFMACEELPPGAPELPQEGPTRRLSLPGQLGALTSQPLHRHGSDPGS
In series [12] the target is Cannabinoid receptor 1 (Homo sapiens, UniProt P21554). Nature of the series: Agonist activity at cannabinoid receptor 1 (unknown origin) expressed in cells measured after 90 mins by beta-arrestin recruitment assay. The class given is functional, cell-based.
Cannabinoid receptor 1, sequence (P21554 whole entry): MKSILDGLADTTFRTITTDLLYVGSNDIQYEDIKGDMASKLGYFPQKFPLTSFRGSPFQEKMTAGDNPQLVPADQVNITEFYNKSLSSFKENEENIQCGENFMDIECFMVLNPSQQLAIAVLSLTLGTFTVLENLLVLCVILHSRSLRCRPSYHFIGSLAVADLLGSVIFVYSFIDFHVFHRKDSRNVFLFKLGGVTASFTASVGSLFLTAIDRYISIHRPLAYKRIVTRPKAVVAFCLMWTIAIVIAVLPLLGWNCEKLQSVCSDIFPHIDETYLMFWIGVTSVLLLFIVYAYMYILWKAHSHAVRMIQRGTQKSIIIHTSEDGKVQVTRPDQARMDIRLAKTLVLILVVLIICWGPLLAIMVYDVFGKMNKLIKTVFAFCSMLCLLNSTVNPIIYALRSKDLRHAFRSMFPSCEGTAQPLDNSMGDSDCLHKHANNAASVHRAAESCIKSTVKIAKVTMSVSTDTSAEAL
The target in series [13] is T2, Voltage-gated inwardly rectifying potassium channel KCNH2. Nature of the series: Inhibition of human ERG.
Series [14] in a line: Distribution coefficient, logD of compound at pH 7.4 by shake flask method. The series is classed as physicochemical. To be noted: octanol/water.
For series [15], the target named is Sodium-dependent noradrenaline transporter (Homo sapiens) (UniProt P23975). Nature of the series: Inhibition of norepinephrine transporter (unknown origin) expressed in cells incubated for 60 mins by amine transporter assay. The class given is cell-based.
Sodium-dependent noradrenaline transporter (Homo sapiens), sequence (P23975 whole entry): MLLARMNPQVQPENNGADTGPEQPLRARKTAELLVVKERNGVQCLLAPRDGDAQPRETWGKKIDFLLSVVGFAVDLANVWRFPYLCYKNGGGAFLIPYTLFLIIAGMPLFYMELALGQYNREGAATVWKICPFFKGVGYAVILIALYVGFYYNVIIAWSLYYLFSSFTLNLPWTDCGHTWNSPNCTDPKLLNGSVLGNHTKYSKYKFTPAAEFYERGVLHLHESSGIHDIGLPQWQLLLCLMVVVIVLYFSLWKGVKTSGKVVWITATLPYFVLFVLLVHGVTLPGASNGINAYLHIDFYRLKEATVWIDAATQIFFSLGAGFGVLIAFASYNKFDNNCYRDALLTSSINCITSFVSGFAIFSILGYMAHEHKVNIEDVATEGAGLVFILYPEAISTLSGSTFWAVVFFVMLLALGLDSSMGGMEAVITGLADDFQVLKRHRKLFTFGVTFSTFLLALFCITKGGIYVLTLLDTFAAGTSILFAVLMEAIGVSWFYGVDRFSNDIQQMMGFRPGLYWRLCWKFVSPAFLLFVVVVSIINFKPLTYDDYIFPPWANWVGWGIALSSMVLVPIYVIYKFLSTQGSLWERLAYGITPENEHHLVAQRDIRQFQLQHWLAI
In series [16] the target is Bromodomain-containing protein 4 (Homo sapiens, UniProt O60885). Nature of the series: Inhibition of His-tagged BRD4 (unknown origin) using tetra-acetylated histone H4 peptide as substrate by fluorescent polarization binding assay.
The target in series [17] is D(1A) dopamine receptor (Homo sapiens, UniProt P21728). Nature of the series: Agonist activity at dopamine D1 receptor (unknown origin) expressed in cells assessed as change in fluorescence measured after 24 hrs by FLIPR assay. The series is classed as functional, cell-based.
Series [18] can be described thus: Apparent permeability in MDCK cells. The series is classed as ADME, cell-based, Canis lupus familiaris. The following applies: dog.
Series [19] addresses 5-hydroxytryptamine receptor 2B (Homo sapiens, UniProt P41595). Nature of the series: Agonist activity at serotonin 2B receptor (unknown origin) expressed in cells assessed as change in fluorescence measured after 24 hrs by FLIPR assay. The class given is functional, cell-based.
The target in series [20] is cGMP-specific 3',5'-cyclic phosphodiesterase (Homo sapiens, UniProt O76074). Nature of the series: Inhibition of PDE5A1 (unknown origin) assessed as conversion of cAMP to AMP measured after 30 mins by YSi scintillation proximity assay.
Series [21] addresses Beta-2 adrenergic receptor (Homo sapiens, UniProt P07550). Nature of the series: Agonist activity at adrenergic beta2 receptor (unknown origin) expressed in cells measured after 90 mins by beta-arrestin recruitment assay. The series is classed as functional, cell-based.
Series [22] concerns the target Sodium-dependent serotonin transporter (Homo sapiens) (UniProt P31645). Nature of the series: Inhibition of serotonin transporter (unknown origin) expressed in cells incubated for 30 mins by amine transporter assay. The class given is cell-based.
The target of series [23] is Sodium-dependent dopamine transporter (Homo sapiens) (UniProt Q01959). Nature of the series: Inhibition of dopamine transporter (unknown origin) expressed in cells incubated for 60 mins by amine transporter assay. The series is classed as cell-based.
For series [24], the target named is 3',5'-cyclic-AMP phosphodiesterase 4D (Homo sapiens, UniProt Q08499). Nature of the series: Inhibition of PDE4D3 (unknown origin) assessed as conversion of cAMP to AMP measured after 30 mins by YSi scintillation proximity assay.
3',5'-cyclic-AMP phosphodiesterase 4D, sequence (Q08499 whole entry): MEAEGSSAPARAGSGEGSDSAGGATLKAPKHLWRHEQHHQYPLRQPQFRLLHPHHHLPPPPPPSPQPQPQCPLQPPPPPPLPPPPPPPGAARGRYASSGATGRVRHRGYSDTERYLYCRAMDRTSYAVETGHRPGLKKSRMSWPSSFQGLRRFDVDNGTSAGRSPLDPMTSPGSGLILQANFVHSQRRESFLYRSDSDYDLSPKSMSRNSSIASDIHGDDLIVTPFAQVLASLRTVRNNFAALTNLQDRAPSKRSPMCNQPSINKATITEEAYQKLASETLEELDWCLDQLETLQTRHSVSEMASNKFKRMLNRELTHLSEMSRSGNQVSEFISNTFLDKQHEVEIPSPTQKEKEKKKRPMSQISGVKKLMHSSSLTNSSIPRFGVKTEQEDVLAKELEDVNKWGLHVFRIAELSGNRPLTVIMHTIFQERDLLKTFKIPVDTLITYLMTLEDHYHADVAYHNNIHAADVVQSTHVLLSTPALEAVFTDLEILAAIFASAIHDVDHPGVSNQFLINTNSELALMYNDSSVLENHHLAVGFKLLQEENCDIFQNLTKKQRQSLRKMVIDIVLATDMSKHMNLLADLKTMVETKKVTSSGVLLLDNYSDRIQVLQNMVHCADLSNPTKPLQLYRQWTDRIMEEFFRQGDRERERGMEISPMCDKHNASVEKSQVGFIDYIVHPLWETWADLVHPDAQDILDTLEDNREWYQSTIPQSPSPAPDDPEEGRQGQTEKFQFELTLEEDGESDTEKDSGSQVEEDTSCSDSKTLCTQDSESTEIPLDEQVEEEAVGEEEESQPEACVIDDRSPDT
The target in series [25] is Histamine H1 receptor (Homo sapiens, UniProt P35367). Nature of the series: Agonist activity at histamine H1 receptor (unknown origin) expressed in cells assessed as change in fluorescence measured after 24 hrs by FLIPR assay. The class given is functional, cell-based.
For series [26], the target named is T3, Alpha-1A adrenergic receptor (Homo sapiens, UniProt P35348).
T3 sequence (P35348 whole entry): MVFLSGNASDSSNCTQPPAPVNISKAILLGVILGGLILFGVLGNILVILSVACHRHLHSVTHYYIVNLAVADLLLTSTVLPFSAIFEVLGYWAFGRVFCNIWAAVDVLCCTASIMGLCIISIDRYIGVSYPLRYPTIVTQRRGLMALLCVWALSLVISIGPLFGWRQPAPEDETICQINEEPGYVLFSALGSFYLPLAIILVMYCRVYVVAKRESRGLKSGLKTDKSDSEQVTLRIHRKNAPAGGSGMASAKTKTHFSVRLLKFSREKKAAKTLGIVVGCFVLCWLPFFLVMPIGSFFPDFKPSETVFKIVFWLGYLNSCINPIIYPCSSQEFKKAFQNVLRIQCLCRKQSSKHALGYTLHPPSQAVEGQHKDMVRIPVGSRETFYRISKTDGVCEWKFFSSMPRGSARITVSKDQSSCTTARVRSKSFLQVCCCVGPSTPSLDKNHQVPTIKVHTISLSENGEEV
Nature of the series: Agonist activity at adrenergic alpha-1A receptor (unknown origin) expressed in cells assessed as change in fluorescence measured after 24 hrs by FLIPR assay. The class given is functional, cell-based.

Series [27] can be described thus: Solubility of compound at pH 7.4. The class given is physicochemical. The following applies: buffer.
Series [28] is described as follows: Inhibition of PDE3A1 (unknown origin) assessed as conversion of cAMP to AMP measured after 30 mins by YSi scintillation proximity assay. Also on record: species or system Homo sapiens.

Sodium-dependent serotonin transporter (Homo sapiens), sequence (P31645 whole entry, looked up): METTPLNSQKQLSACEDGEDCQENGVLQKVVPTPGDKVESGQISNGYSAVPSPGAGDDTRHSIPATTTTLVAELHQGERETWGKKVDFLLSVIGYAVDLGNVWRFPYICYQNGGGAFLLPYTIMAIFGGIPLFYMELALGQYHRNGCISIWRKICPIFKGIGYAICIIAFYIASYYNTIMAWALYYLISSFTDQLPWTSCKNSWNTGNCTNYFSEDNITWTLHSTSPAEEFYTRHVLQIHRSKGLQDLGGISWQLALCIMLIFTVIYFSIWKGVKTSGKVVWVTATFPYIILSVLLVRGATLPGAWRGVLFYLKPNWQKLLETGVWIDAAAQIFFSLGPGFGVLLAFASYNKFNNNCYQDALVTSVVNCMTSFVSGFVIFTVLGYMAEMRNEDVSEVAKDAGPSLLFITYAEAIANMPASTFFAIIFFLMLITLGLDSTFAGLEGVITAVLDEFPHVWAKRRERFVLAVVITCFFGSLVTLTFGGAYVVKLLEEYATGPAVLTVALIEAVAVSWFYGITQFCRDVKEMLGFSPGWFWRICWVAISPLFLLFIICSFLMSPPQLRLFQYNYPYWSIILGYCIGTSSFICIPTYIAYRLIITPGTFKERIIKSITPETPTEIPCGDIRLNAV
5-hydroxytryptamine receptor 2B, sequence (P41595 whole entry): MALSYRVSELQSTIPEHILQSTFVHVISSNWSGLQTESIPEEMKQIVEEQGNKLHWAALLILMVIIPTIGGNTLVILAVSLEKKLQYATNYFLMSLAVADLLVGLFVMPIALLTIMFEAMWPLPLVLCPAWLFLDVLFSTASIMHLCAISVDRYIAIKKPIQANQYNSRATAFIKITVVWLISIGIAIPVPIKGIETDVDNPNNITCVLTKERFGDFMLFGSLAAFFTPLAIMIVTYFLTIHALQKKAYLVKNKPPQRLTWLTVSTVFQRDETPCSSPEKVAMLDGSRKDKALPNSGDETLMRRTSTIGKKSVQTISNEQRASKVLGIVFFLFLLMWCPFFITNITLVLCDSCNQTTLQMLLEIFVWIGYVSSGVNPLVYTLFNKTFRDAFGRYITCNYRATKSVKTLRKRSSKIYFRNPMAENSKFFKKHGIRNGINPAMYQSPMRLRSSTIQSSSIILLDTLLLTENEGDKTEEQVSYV

A word on the EC50: it is the midpoint of the concentration-response curve. As a reminder, the Emax is the greatest response seen or fitted, relative to the assay's reference. In general, IC50 refers to the concentration that inhibits the measured activity by half. In the case of `COC(=O)c1c(-c2ccc(C(=O)N(c3ncccc3C)[C@@H]3CCCNC3)cc2)cnn1C`, the 50% effective concentration (EC50) in [1] is over 50 µM; in [4] it was 8.3 µM; in series [6], over 10 µM; in series [7], 3.6 µM; in series [8], over 50 µM. The Emax in series [2] was -35%; in series [3] it was 220%. In series [5], this compound gave a half-inhibitory concentration (IC50) of 2.5 µM.
For orientation: Ki means a measure of affinity in units of concentration, obtained from inhibition or displacement. The term logD denotes lipophilicity at a set pH, counting ionised and neutral species. A low value points to lower lipophilicity. As usually defined, the Papp is the rate of passage across a membrane or cell layer, normalised by area and donor concentration. For orientation: solubility means how much of the substance goes into solution per volume. High values mean a readily soluble substance, low ones a poorly soluble substance. As for `Cc1cnc2c(-c3ccc(C(=O)N(c4ncccc4C)[C@@H]4CCCNC4)cc3F)cnn2c1`, the IC50 in series [9] is 204 µM; in series [16], over 25 µM; in series [20] it was over 200 µM; in series [5], 1.7 µM; in [24] it was 39 µM; in series [28], 99 µM. Besides, the inhibition constant (Ki) in series [10] is 0.4 µM; in [11] it was 7.2 µM. Further, the 50% effective concentration (EC50) in series [12] is over 10 µM; in series [13], 12.7 µM; in series [17], over 10 µM; in series [1], over 10 µM; in series [19], over 10 µM; in series [21], over 10 µM. Moreover, the EC50 in series [4] was 2.1 µM; in series [6], over 10 µM; in series [7] it was 7.8 µM; in [8], over 10 µM; in series [25] it was over 10 µM; in series [26], over 10 µM. Further, the log distribution coefficient (logD) in [14] is 1.1. Further, the Kb in [15], in [22] and in series [23] was over 10 µM throughout. Also, the Emax is -43% in [2] and 100% in series [3]. In addition, in series [18], the Papp is 10.1 ×10⁻⁶ cm/s. In addition, the solubility in series [27] was 460 µM (≈ 204 µg/mL).
Turning to `CN(C)c1cncc(-c2ccc(C(=O)N(c3ncccc3Cl)[C@@H]3CCCNC3)cc2)n1`, the EC50 in series [1] was over 50 µM; in [4], 39 µM; in series [6] it was over 10 µM; in series [7], over 10 µM; in series [8] it was over 50 µM. Also, in series [2], the Emax was -41%. In series [5], the midpoint of inhibition, the IC50, lay at 3 µM.
With `Cc1cnc2c(c1)nnn2-c1ccc(C(=O)N(c2ncccc2Cl)[C@@H]2CCCNC2)cc1`, in [3], the Emax was found to be 80%. In addition, the figures for the EC50 in series [6] and in series [7] were over 10 µM and 1.4 µM, respectively.
`CNc1cncc(-c2ccc(C(=O)N(c3ncccc3Cl)[C@@H]3CCCNC3)cc2)n1`: the EC50 in series [1] is over 10 µM; in [4] it was 6 µM; in series [6] it was over 10 µM; in [7], 5.6 µM; in series [8], over 10 µM. The values for the Emax in [2] and in series [3] were -25% and 100%, respectively. Further, the IC50 in [5] worked out at 3.1 µM.
Turning to `Cc1cccnc1N(C(=O)c1ccc(-c2cnn3cccnc23)cc1)[C@@H]1CCCNC1`, the EC50 is over 50 µM in series [1]; 33 µM in [4]; over 10 µM in [6]; 3.7 µM in [7]; over 50 µM in [8]. The Emax was -41% in [2] and 145% in series [3]. Further, the IC50 in series [5] amounted to 2.2 µM.
As for `Cc1cncc(-c2ccc(C(=O)N(c3ncccc3Cl)[C@@H]3CCCNC3)cc2)n1`, the 50% effective concentration (EC50) in [1] was over 30 µM; in series [4], over 30 µM; in series [6], over 10 µM; in series [7] it was over 10 µM; in series [8] it was over 30 µM. In series [2], the Emax is -32%. For the same compound, half-maximal inhibition in [5] (IC50) required 2.8 µM.
Consider `O=C(c1ccc(-c2cnn3cccnc23)cc1)N(c1nccc2ccccc12)[C@@H]1CCCNC1`, for which the Emax in [3] stood at 206%. The same compound displayed an IC50 in series [5] of 1.3 µM. Also, the EC50 is over 10 µM in [6] and 0.58 µM in series [7].
On to `Cc1ccc2nnn(-c3ccc(C(=O)N(c4ncccc4Cl)[C@@H]4CCCNC4)cc3)c2n1`, for which the Emax in series [3] is 155%. In series [5], this compound came in with a half-maximal inhibitory concentration (IC50) of 0.9 µM. For the same compound, the half-maximal effective concentration (EC50) in [6] was over 25 µM; in [7], 4.4 µM.
With `O=C(c1ccc(-n2nnc3cccnc32)cc1)N(c1ncccc1Cl)[C@@H]1CCCNC1`, the Emax in series [3] amounted to 100%. The figures for the EC50 in [6] and in series [7] were over 10 µM and 4.5 µM, respectively.
